In patent US20230064034A1, “LIGHT STABLE LIQUID DISINFECTANT COMPOSITIONS” (Onyx Lotus, LLC, priority 2021, published 2023) one finds reduction data, which are given here for one molecule.

The test system of this assay is E. coli. The assay can be described thus: Durability test: wiped aluminum coupons, surface tested for E. coli by ASTM E-2315. The assay is classed as cell-based, Escherichia coli. The following applies: aluminum coupon wiped 40 times. The protocol:
The durability test was designed to identify the number of times a surface can be wiped under pressure and prevent growth of pathogens on the surface after the light stable disinfectant was applied. The liquid composition contains 100 mL distilled water, 1.25 g EDTA, 0.01 g silver nitrate, and 0.5 g PVP K-30 having a 100 ppm concentration of silver. Five test solutions were evaluated: 10 mL liquid disinfectant composition, sodium hypochlorite, […] (peracetic acid), and Lysol. This 100 ppm solution of silver solution was loaded into a sprayer and sprayed onto 1×1'' sterilized aluminum or stainless-steel coupons. The aluminum coupons were wiped with a sterilized non-scratch scouring sponge or a soft cloth with a 1 kg weight on top of the non-scratch scouring sponge or a soft cloth then autoclaved. After the aluminum coupons had cooled to room temperature, the test solutions were sprayed onto the coupons. […]

`OCl` [Sodium hypochlorite] had a reduction of 0%.
